Source: patent US10487068B2, “Pyridazine derivatives as RORc modulators” (Genentech, Inc., priority 2015, dated 2019)

What follows are compounds tested against T1, RORc ligand binding domain (Homo sapiens, UniProt P51449) (assay: In Vitro RORc Ligand Binding Assay). Conditions: RORc IC50, radioligand 25-[3H]hydroxycholesterol 6 nM; 0.6 ug/mL RORc receptor; 3 h at 25° C.
T1 sequence (P51449 269-508 limits assumed): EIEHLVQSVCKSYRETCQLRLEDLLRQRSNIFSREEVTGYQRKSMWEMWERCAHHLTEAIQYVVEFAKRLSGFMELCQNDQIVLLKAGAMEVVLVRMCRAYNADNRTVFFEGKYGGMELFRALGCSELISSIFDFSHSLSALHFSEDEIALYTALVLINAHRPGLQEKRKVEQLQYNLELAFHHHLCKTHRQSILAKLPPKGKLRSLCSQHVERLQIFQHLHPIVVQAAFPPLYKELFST

Row | SMILES | IC50 [nM]
1 | CC1(C)[C@H]2CC[C@]1(c1ncccn1)c1nnc(-c3c(F)cccc3F)cc12 [Example 1, (5R,8R)-3-(2,6-difluorophenyl)-9,9-dimethyl-8-(pyrimidin-2-yl)-5,6,7,8-tetrahydro-5,8-methanocinnoline] | 15
2 | CC1(C)[C@H]2CC[C@]1(c1cccnn1)c1nnc(-c3c(F)cccc3F)cc12 [Example 2, (5R,8S)-3-(2,6-difluorophenyl)-9,9-dimethyl-8-(pyridazin-3-yl)-5,6,7,8-tetrahydro-5,8-methanocinnoline] | 13.4
3 | CC1(C)[C@H]2CC[C@]1(c1c[nH]c(=O)cn1)c1nnc(-c3c(F)cccc3F)cc12 [Example 5, 5-((5R,8S)-3-(2,6-difluorophenyl)-9,9-dimethyl-5,6,7,8-tetrahydro-5,8-methanocinnolin-8-yl)pyrazin-2(1H)-one] | 38.4
4 | CC1(C)[C@H]2CC[C@]1(c1ncc(O)cn1)c1nnc(-c3c(F)cccc3F)cc12 [Example 6, 2-((5R,8R)-3-(2,6-difluorophenyl)-9,9-dimethyl-5,6,7,8-tetrahydro-5,8-methanocinnolin-8-yl)pyrimidin-5-ol] | 115
5 | CC1(C)[C@H]2CC[C@]1(c1ccnc(=O)[nH]1)c1nnc(-c3c(F)cccc3F)cc12 [Example 7, 6-((5R,8S)-3-(2,6-difluorophenyl)-9,9-dimethyl-5,6,7,8-tetrahydro-5,8-methanocinnolin-8-yl)pyrimidin-2(1H)-one] | 64
6 | Cn1c([C@@]23CC[C@@H](c4cc(-c5c(F)cccc5F)nnc42)C3(C)C)ccc(C#N)c1=O [Example 8, 6-((5R,8S)-3-(2,6-difluorophenyl)-9,9-dimethyl-5,6,7,8-tetrahydro-5,8-methanocinnolin-8-yl)-1-methyl-2-oxo-1,2-dihydropyridine-3-carbonitrile] | 108
7 | COC(=O)c1cncc([C@@]23CC[C@@H](c4cc(-c5c(F)cccc5F)nnc42)C3(C)C)n1 [Example 9, methyl 6-((5R,8S)-3-(2,6-difluorophenyl)-9,9-dimethyl-5,6,7,8-tetrahydro-5,8-methanocinnolin-8-yl)pyrazine-2-carboxylate] | 7.7
8 | COC(=O)c1cnc([C@@]23CC[C@@H](c4cc(-c5c(F)cccc5F)nnc42)C3(C)C)cn1 [Example 10, methyl 5-((5R,8S)-3-(2,6-difluorophenyl)-9,9-dimethyl-5,6,7,8-tetrahydro-5,8-methanocinnolin-8-yl)pyrazine-2-carboxylate] | 389
9 | CC1(C)[C@H]2CC[C@]1(c1cncc(C(=O)O)n1)c1nnc(-c3c(F)cccc3F)cc12 [Example 11, 6-((5R,8S)-3-(2,6-difluorophenyl)-9,9-dimethyl-5,6,7,8-tetrahydro-5,8-methanocinnolin-8-yl)pyrazine-2-carboxylic acid] | 38.9
10 | CC1(C)[C@H]2CC[C@]1(c1cncc(C(N)=O)n1)c1nnc(-c3c(F)cccc3F)cc12 [Example 12, 6-((5R,8S)-3-(2,6-difluorophenyl)-9,9-dimethyl-5,6,7,8-tetrahydro-5,8-methanocinnolin-8-yl)pyrazine-2-carboxamide] | 18.3
11 | CC1(C)[C@H]2CC[C@]1(c1cnc(C(N)=O)cn1)c1nnc(-c3c(F)cccc3F)cc12 [Example 13, 5-((5R,8S)-3-(2,6-difluorophenyl)-9,9-dimethyl-5,6,7,8-tetrahydro-5,8-methanocinnolin-8-yl)pyrazine-2-carboxamide] | 4270
12 | CC1(C)[C@H]2CC[C@]1(c1cncc(C#N)n1)c1nnc(-c3c(F)cccc3F)cc12 [Example 14, 6-((5R,8S)-3-(2,6-difluorophenyl)-9,9-dimethyl-5,6,7,8-tetrahydro-5,8-methanocinnolin-8-yl)pyrazine-2-carbonitrile] | 5.7
13 | CC1(C)[C@H]2CC[C@]1(c1cnc(C#N)cn1)c1nnc(-c3c(F)cccc3F)cc12 [Example 15, 5-((5R,8S)-3-(2,6-difluorophenyl)-9,9-dimethyl-5,6,7,8-tetrahydro-5,8-methanocinnolin-8-yl)pyrazine-2-carbonitrile] | 1310
14 | CC1(C)[C@H]2CC[C@]1(c1cccc(C#N)n1)c1nnc(-c3c(F)cccc3F)cc12 [Example 16, 6-((5R,8S)-3-(2,6-difluorophenyl)-9,9-dimethyl-5,6,7,8-tetrahydro-5,8-methanocinnolin-8-yl)picolinonitrile] | 7.6
15 | CNC(=O)c1cccc([C@@]23CC[C@@H](c4cc(-c5c(F)cccc5F)nnc42)C3(C)C)n1 [Example 17, 6-((5R,8S)-3-(2,6-difluorophenyl)-9,9-dimethyl-5,6,7,8-tetrahydro-5,8-methanocinnolin-8-yl)-N-methylpicolinamide] | 20.5
16 | CN(C)C(=O)c1cccc([C@@]23CC[C@@H](c4cc(-c5c(F)cccc5F)nnc42)C3(C)C)n1 [Example 18, 6-((5R,8S)-3-(2,6-difluorophenyl)-9,9-dimethyl-5,6,7,8-tetrahydro-5,8-methanocinnolin-8-yl)-N,N-dimethylpicolinamide] | 35.7

Row | SMILES | IC50 [nM]
17 | Cc1cncnc1[C@@]12CC[C@@H](c3cc(-c4c(F)cccc4F)nnc31)C2(C)C [Example 19] | 20.3
18 | CC1(C)[C@H]2CC[C@]1(c1nccc(=O)[nH]1)c1nnc(-c3c(F)cccc3F)cc12 [Example 20, 2-((5R,8R)-3-(2,6-difluorophenyl)-9,9-dimethyl-5,6,7,8-tetrahydro-5,8-methanocinnolin-8-yl)pyrimidin-4(3H)-one] | 140
19 | COc1ccnc([C@@]23CC[C@@H](c4cc(-c5c(F)cccc5F)nnc42)C3(C)C)n1 [Example 21, (5R,8R)-3-(2,6-difluorophenyl)-8-(4-methoxypyrimidin-2-yl)-9,9-dimethyl-5,6,7,8-tetrahydro-5,8-methanocinnoline] | 23.8
20 | CC1(C)[C@H]2CC[C@]1(c1cc(=O)cco1)c1nnc(-c3c(F)cccc3F)cc12 [Example 22, 2-((5R,8R)-3-(2,6-difluorophenyl)-9,9-dimethyl-5,6,7,8-tetrahydro-5,8-methanocinnolin-8-yl)-4H-pyran-4-one] | 33.5
21 | CC1(C)[C@H]2CC[C@]1(c1ccnc(N)n1)c1nnc(-c3c(F)cccc3F)cc12 [Example 23] | 21.9
22 | CC1(C)[C@H]2CC[C@]1(c1cc(=O)cc[nH]1)c1nnc(-c3c(F)cccc3F)cc12 [Example 24, 2-((5R,8S)-3-(2,6-difluorophenyl)-9,9-dimethyl-5,6,7,8-tetrahydro-5,8-methanocinnolin-8-yl)pyridin-4(1H)-one] | 1940
23 | CC1(C)[C@H]2CC[C@]1(c1cc(O)cc(=O)o1)c1nnc(-c3c(F)cccc3F)cc12 [Example 25, 6-((5R,8R)-3-(2,6-difluorophenyl)-9,9-dimethyl-5,6,7,8-tetrahydro-5,8-methanocinnolin-8-yl)-4-hydroxy-2H-pyran-2-one] | 2490
24 | COc1ccnc([C@@]23CC[C@@H](c4cc(-c5c(F)cccc5F)nnc42)C3(C)C)c1 [Example 26] | 57.2
25 | CNC(=O)c1cncc([C@@]23CC[C@@H](c4cc(-c5c(F)cccc5F)nnc42)C3(C)C)n1 [Example 27, 6-((5R,8S)-3-(2,6-difluorophenyl)-9,9-dimethyl-5,6,7,8-tetrahydro-5,8-methanocinnolin-8-yl)-N-methylpyrazine-2-carboxamide] | 26.4
26 | CN(C)C(=O)c1cncc([C@@]23CC[C@@H](c4cc(-c5c(F)cccc5F)nnc42)C3(C)C)n1 [Example 28, 6-((5R,8S)-3-(2,6-difluorophenyl)-9,9-dimethyl-5,6,7,8-tetrahydro-5,8-methanocinnolin-8-yl)-N,N-dimethylpyrazine-2-carboxamide] | 41.7
27 | CC1(C)[C@H]2CC[C@]1(c1cncc(C(=O)NC3COC3)n1)c1nnc(-c3c(F)cccc3F)cc12 [Example 29, 6-((5R,8S)-3-(2,6-difluorophenyl)-9,9-dimethyl-5,6,7,8-tetrahydro-5,8-methanocinnolin-8-yl)-N-(oxetan-3-yl)pyrazine-2-carboxamide] | 43.1
28 | CC1(C)[C@H]2CC[C@]1(c1cncc(C(=O)N3CC(C#N)C3)n1)c1nnc(-c3c(F)cccc3F)cc12 [Example 30, 1-(6-((5R,8S)-3-(2,6-difluorophenyl)-9,9-dimethyl-5,6,7,8-tetrahydro-5,8-methanocinnolin-8-yl)pyrazine-2-carbonyl)azetidine-3-carbonitrile] | 146
29 | CC1(C)[C@H]2CC[C@]1(c1cncc(C(=O)N3CC(CO)C3)n1)c1nnc(-c3c(F)cccc3F)cc12 [Example 31, (6-((5R,8S)-3-(2,6-difluorophenyl)-9,9-dimethyl-5,6,7,8-tetrahydro-5,8-methanocinnolin-8-yl)pyrazin-2-yl)(3-(hydroxymethyl)azetidin-1-yl)methanone] | 93.3
30 | CC(=O)Nc1cncc([C@@]23CC[C@@H](c4cc(-c5c(F)cccc5F)nnc42)C3(C)C)n1 [Example 32, N-(6-((5R,8S)-3-(2,6-difluorophenyl)-9,9-dimethyl-5,6,7,8-tetrahydro-5,8-methanocinnolin-8-yl)pyrazin-2-yl)acetamide] | 22
31 | CC1(C)[C@H]2CC[C@]1(c1cncc(N)n1)c1nnc(-c3c(F)cccc3F)cc12 [Example 33, 6-((5R,8S)-3-(2,6-difluorophenyl)-9,9-dimethyl-5,6,7,8-tetrahydro-5,8-methanocinnolin-8-yl)pyrazin-2-amine] | 22
32 | CC1(C)[C@H]2CC[C@]1(c1cncc(NS(C)(=O)=O)n1)c1nnc(-c3c(F)cccc3F)cc12 [Example 34, N-(6-((5R,8S)-3-(2,6-difluorophenyl)-9,9-dimethyl-5,6,7,8-tetrahydro-5,8-methanocinnolin-8-yl)pyrazin-2-yl)methanesulfonamide] | 75.9
